# Data published in patent US8338339B2, “Process for inhibition of proteolytic activity during the ensiling of forages” (The United States of America as represented by the …, priority 2003, dated 2012).
# What was measured:
# Format in all cases: biochemical
# [1] = test system: proteolytic activity in red clover leaf extracts; assay: Proteolysis (release of free amino acids, ninhydrin assay) in red clover leaf extracts; conditions: desalted red clover extract + 3 mM CA, 37° C.
# Method: Clarified extracts of red clover leaves were made in 50 mM MES, pH 6.5 (crude extract in Table 1). Where indicated, extracts were desalted using a Sephadex G-25 spin column equilibrated with 50 mM MES, pH 6.5, to remove low molecular weight molecules (i.e. o-diphenols). Extract protein concentrations were adjusted to 2 mg/ml with buffer. Where indicated, the o-diphenol in the form of caffeic acid (CA) was added to a final concentration of 3 mM. Extracts were incubated at 37° C. […] Data are the average of three experiments using independent tissue samples ±standard error.
# [2] = test system: proteolysis in control-alfalfa leaf extracts (no PPO transgene); assay: Proteolysis (amino acid release) in control-alfalfa leaf extracts
# Method: (§1) Clarified extracts of red clover leaves were made in 50 mM MES, pH 6.5 (crude extract in Table 1). Where indicated, extracts were desalted using a Sephadex G-25 spin column equilibrated with 50 mM MES, pH 6.5, to remove low molecular weight molecules (i.e. o-diphenols). Extract protein concentrations were adjusted to 2 mg/ml with buffer. Where indicated, the o-diphenol in the form of caffeic acid (CA) was added to a final concentration of 3 mM. Extracts were incubated at 37° C. At the indicated times, samples were removed, trichloroacetic acid (TCA) added to 5%, and release of free amino acids (a measure of proteolytic activity) into the TCA-soluble supernatant was determined by ninhydrin assay. Data are the average of three experiments using independent tissue samples ±standard error.
# (§2) Proteolysis was measured in leaf extracts essentially as described in Experiment 1 above. The o-diphenol in the form of caffeic acid was added to 3 mM caffeic acid. Data are the average of three experiments using independent tissue samples ±standard error.
# (§3) Proteolysis after a four hour incubation at 37° C. was measured essentially as described for Experiment 1 above in leaf extracts of either transgenic alfalfa expressing the red clover PPO1 gene (PPO-alfalfa) or control-alfalfa not expressing an exogenous PPO gene (control-alfalfa) using the o-diphenol in the form of caffeic acid at various concentrations up to 10 mM. Data are the average of three experiments using independent tissue samples ±standard error.
# (§4) Proteolysis in the reaction mixtures following a four hour incubation at 37° C. was measured essentially as described above for reaction mixture with and without caffeic acid added to 3 mM (+CA and −CA, respectively). Data are the average of three experiments using independent tissue samples ±standard error.
# (§5) Proteolysis after a four hour incubation at 37° C. was measured (as described in Example 1 above) of alfalfa for reaction mixtures containing either 250 mU/ml PPO activity (protein adjusted to 2 mg/ml with control alfalfa extract) or a control alfalfa extract (2 mg/ml protein). Various o-diphenols were present in the reaction mixtures at 3 mM, including caffeic acid (CA) hydrocaffeic acid (HCA), chlorogenic acid (CGA), catechol, and (−)-epicatichin.
# [3] = test system: proteolysis in leaf extracts of transgenic alfalfa expressing the red clover PPO1 gene; assay: Proteolysis (amino acid release) in PPO-alfalfa leaf extracts / alfalfa extracts with PPO activity; conditions: for inhibition of proteolysis: 3 mM caffeic acid
# Method: as §1, §2, §3, §4, §5
# [4] = test system: proteolysis in oat leaf extracts; assay: Proteolysis (amino acid release) in oat leaf extracts; conditions: for Mean amino acid release: with 3 mM Caffeic Acid
# Method: as §1
# Proteolysis was measured in oat leaf extracts or oat leaf extracts with PPO activity added (125 mU/ml). The added PPO activity was from an extract of red clover PPO1-expressing alfalfa. […] Total protein was 1.75 mg/ml. In Oat+alfalfa extracts, oat protein was present at 1.4 mg/ml and alfalfa protein was present at 0.35 mg/ml. Caffeic acid was present at 3 mM. Results in Table 6 below are for the average of two experiments using independent tissue samples.
# [5] = test system: polyphenol oxidase (PPO), red clover PPO1 gene product; assay: PPO activity (caffeic acid oxidized per minute, TNB protocol); conditions: PPO1 expressed in transgenic alfalfa
# Method: The o-diphenol compound is applied to forage at a rate ranging from about 5 to about 30 micromoles per gram of fresh weight forage and the oxidase is applied at a rate of about 0.1 to about 1 unit per gram of fresh weight forage. One unit is defined as one micromole of caffeic acid oxidized per minute by the following protocol.
# The protocol used to determine activity is carried out at 25° C. The buffer is 20 mM TRIS-acetate pH 7.0. The caffeic acid is 100 mM in ethyl alcohol. […] The decrease in absorbance at 412 nm (TNB) from 2-5 minutes is used to determine PPO activity.
# PPO activity present in reaction mixtures was varied from 0 to 500 mU/ml of extract by mixing extracts from PPO- and control-alfalfa (1 U=1 micromole caffeic acid oxidized/min; red clover and PPO-Alfalfa have 0.5-5 U activity/mg protein) to achieve a final protein concentration of 2 mg/ml. Proteolysis in the reaction mixtures following a four hour incubation at 37° C. was measured essentially as described above for reaction mixture with and without caffeic acid added to 3 mM (+CA and −CA, respectively). […]
# [6] = Control-Alfalfa extract 2 mg/ml protein, substrate 3 mM, 37° C.
# [7] = PPO-Alfalfa, 250 mU/ml PPO activity, substrate 3 mM, 37° C.
compound,measurement,setting,value
"O=C(O)/C=C/c1ccc(O)c(O)c1 [CA, caffeic acid]",release of free amino acids,[1]; 0 h,0.00 ± 0.00
same,release of free amino acids,[1]; 1 h,0.04 ± 0.01
same,release of free amino acids,[1]; 2 h,0.06 ± 0.01
same,release of free amino acids,[1]; 3 h,0.09 ± 0.01
same,release of free amino acids,[1]; 4 h,0.11 ± 0.02
same,Mean four hour Amino Acid Release,"[2]; 3 mM Caffeic Acid, PPO 0 mU/ml (control-alfalfa extract), protein 2 mg/ml",0.79 ± 0.10 µmol/mg
same,Mean four hour Amino Acid Release,[2]; [6],0.75 ± 0.08 µmol/mg
same,Mean four hour Amino Acid Release,"[2]; Control-Alfalfa, caffeic acid 0.5 mM, 37° C.",0.75 ± 0.09 µmol/mg
same,Mean four hour Amino Acid Release,"[2]; Control-Alfalfa, caffeic acid 1 mM, 37° C.",0.69 ± 0.06 µmol/mg
same,Mean four hour Amino Acid Release,"[2]; Control-Alfalfa, caffeic acid 2 mM, 37° C.",0.70 ± 0.07 µmol/mg
same,Mean four hour Amino Acid Release,"[2]; Control-Alfalfa, caffeic acid 3 mM, 37° C.",0.66 ± 0.09 µmol/mg
same,Mean four hour Amino Acid Release,"[2]; Control-Alfalfa, caffeic acid 4 mM, 37° C.",0.75 ± 0.07 µmol/mg
same,Mean four hour Amino Acid Release,"[2]; Control-Alfalfa, caffeic acid 5 mM, 37° C.",0.75 ± 0.11 µmol/mg
same,Mean four hour Amino Acid Release,"[2]; Control-Alfalfa, caffeic acid 10 mM, 37° C.",0.65 ± 0.06 µmol/mg
same,effect on proteolysis,[2]; caffeic acid 3 mM added to control alfalfa extracts,no significant effect
same,effect on proteolysis,"[2]; in the absence of PPO activity, caffeic acid up to 10 mM",little effect
same,Mean four hour Amino Acid Release,"[3]; 3 mM Caffeic Acid, PPO 16 mU/ml, protein 2 mg/ml",0.36 ± 0.03 µmol/mg
same,Mean four hour Amino Acid Release,"[3]; 3 mM Caffeic Acid, PPO 32 mU/ml, protein 2 mg/ml",0.34 ± 0.05 µmol/mg
same,Mean four hour Amino Acid Release,"[3]; 3 mM Caffeic Acid, PPO 62.5 mU/ml, protein 2 mg/ml",0.21 ± 0.02 µmol/mg
same,Mean four hour Amino Acid Release,"[3]; 3 mM Caffeic Acid, PPO 125 mU/ml, protein 2 mg/ml",0.15 ± 0.03 µmol/mg
same,Mean four hour Amino Acid Release,"[3]; 3 mM Caffeic Acid, PPO 250 mU/ml, protein 2 mg/ml",0.12 ± 0.01 µmol/mg
same,Mean four hour Amino Acid Release,"[3]; 3 mM Caffeic Acid, PPO 500 mU/ml, protein 2 mg/ml",0.06 ± 0.03 µmol/mg
same,inhibition of proteolysis,"[3]; >125 mU/ml PPO activity, four hour",> 80%
same,inhibition of proteolysis,"[3]; PPO activity 16 mU/ml, four hour",> 50%
same,Mean four hour Amino Acid Release,[3]; [7],0.12 ± 0.03 µmol/mg
same,Mean four hour Amino Acid Release,"[3]; PPO-Alfalfa, caffeic acid 0.5 mM, 37° C.",0.32 ± 0.03 µmol/mg
same,Mean four hour Amino Acid Release,"[3]; PPO-Alfalfa, caffeic acid 1 mM, 37° C.",0.25 ± 0.03 µmol/mg
same,Mean four hour Amino Acid Release,"[3]; PPO-Alfalfa, caffeic acid 2 mM, 37° C.",0.16 ± 0.03 µmol/mg
same,Mean four hour Amino Acid Release,"[3]; PPO-Alfalfa, caffeic acid 3 mM, 37° C.",0.11 ± 0.02 µmol/mg
same,Mean four hour Amino Acid Release,"[3]; PPO-Alfalfa, caffeic acid 4 mM, 37° C.",0.08 ± 0.02 µmol/mg
same,Mean four hour Amino Acid Release,"[3]; PPO-Alfalfa, caffeic acid 5 mM, 37° C.",0.06 ± 0.01 µmol/mg
same,Mean four hour Amino Acid Release,"[3]; PPO-Alfalfa, caffeic acid 10 mM, 37° C.",0.04 ± 0.02 µmol/mg
same,proteolytic inhibition compared to extracts to which no caffeic acid was added,"[3]; caffeic acid 0.5 mM, PPO-alfalfa extract, four hour",> 50%
same,reduction in proteolysis,[3]; caffeic acid 3 mM added to PPO-alfalfa extract,~80%
same,proteolytic inhibition,"[3]; caffeic acid 3 mM, PPO-alfalfa extract, four hour",> 80%
same,proteolytic inhibition,[4]; 3 mM caffeic acid with exogenous PPO added (125 mU/ml) to oat extract,~50%
same,Mean amino acid release,"[4]; Oat extract, time 0",0.00 ± 0.00 μmol/mg protein
same,Mean amino acid release,"[4]; Oat extract, time 1",0.82 ± 0.18 μmol/mg protein
same,Mean amino acid release,"[4]; Oat extract, time 2",1.39 ± 0.09 μmol/mg protein
same,Mean amino acid release,"[4]; Oat extract, time 3",1.73 ± 0.15 μmol/mg protein
same,Mean amino acid release,"[4]; Oat extract, time 4",1.79 ± 0.07 μmol/mg protein
same,Mean amino acid release,"[4]; Oat/Control-Alf extract, time 0",0.00 ± 0.00 μmol/mg protein
same,Mean amino acid release,"[4]; Oat/Control-Alf extract, time 1",0.75 ± 0.17 μmol/mg protein
same,Mean amino acid release,"[4]; Oat/Control-Alf extract, time 2",1.42 ± 0.06 μmol/mg protein
same,Mean amino acid release,"[4]; Oat/Control-Alf extract, time 3",1.73 ± 0.05 μmol/mg protein
same,Mean amino acid release,"[4]; Oat/Control-Alf extract, time 4",1.91 ± 0.05 μmol/mg protein
same,Mean amino acid release,"[4]; Oat/PPO-Alf (PPO 125 mU/ml), time 0",0.00 ± 0.00 μmol/mg protein
same,Mean amino acid release,"[4]; Oat/PPO-Alf (PPO 125 mU/ml), time 1",0.60 ± 0.20 μmol/mg protein
same,Mean amino acid release,"[4]; Oat/PPO-Alf (PPO 125 mU/ml), time 2",0.80 ± 0.13 μmol/mg protein
same,Mean amino acid release,"[4]; Oat/PPO-Alf (PPO 125 mU/ml), time 3",0.82 ± 0.11 μmol/mg protein
same,Mean amino acid release,"[4]; Oat/PPO-Alf (PPO 125 mU/ml), time 4",1.02 ± 0.22 μmol/mg protein
same,lower proteolysis than counterparts lacking caffeic acid,[4]; all oat reactions containing 3 mM CA,10-30%
"O=C(/C=C/c1ccc(O)c(O)c1)O[C@@H]1C[C@](O)(C(=O)O)C[C@@H](O)[C@H]1O [CGA, chlorogenic acid]",Mean four hour Amino Acid Release,[2]; [6],0.80 ± 0.06 µmol/mg
same,Mean four hour Amino Acid Release,[3]; [7],0.26 ± 0.06 µmol/mg
"Oc1ccccc1O [Catechol, catechol]",Mean four hour Amino Acid Release,[2]; [6],0.71 ± 0.10 µmol/mg
same,proteolytic inhibition (in words),"[3]; 3 mM, PPO present (250 mU/ml), four hour",significant proteolytic inhibition
same,Mean four hour Amino Acid Release,[3]; [7],0.37 ± 0.05 µmol/mg
same,substrate quality for the red clover PPO1 gene product,[5],relatively poor substrate
"Oc1cc(O)c2c(c1)O[C@H](c1ccc(O)c(O)c1)[C@H](O)C2 [Epicatichin, (−)-epicatichin]",Mean four hour Amino Acid Release,[2]; [6],0.64 ± 0.08 µmol/mg
same,Mean four hour Amino Acid Release,[3]; [7],0.25 ± 0.08 µmol/mg
"O=C(O)CCc1ccc(O)c(O)c1 [HCA, hydrocaffeic acid]",Mean four hour Amino Acid Release,[2]; [6],0.70 ± 0.07 µmol/mg
same,Mean four hour Amino Acid Release,[3]; [7],0.25 ± 0.07 µmol/mg
